Measurements taken from patent US9278963B2, “Pyrimidine hydroxy amide compounds as histone deacetylase inhibitors” (Acetylon Pharmaceuticals, Inc., priority 2013, dated 2016).
pIC50: −log10 of the molar value.

Key:
H929 human myeloma cells = test: In vitro cell proliferation, MTS viability; format: cell-based; details: up to 7 days, relative to Day 0
Experimental: Cellular viability was assessed using Aqueous One MTS reagent at Days 0 (immediately after seeding), 3, 5, and 7.

[1] = system: BE(2)-C neuroblastoma cells; test: Neuroblastoma maturation gene expression, BE(2)-C; format: cell-based
Experimental: (§1) The following is a quick summary of the HDAC neuroblastoma maturation experiments. Adherent cells were plated into 12- or 24-well plates at 10^6 cells/well and allowed to adhere for 2-4 hours. Compounds were dispensed in DMSO at the indicated concentrations using an automated liquid handling system (Tecan D300) and incubated for the indicated times at 37° C. with 5% CO2. Cells were harvested and RNA extracted using the Qiagen RNeasy Mini Kit according to manufacture protocols. The RNA was quantified and relative expression levels were assessed using the Applied Biosystems TaqMan RNA-to-Ct Kit according to manufacture protocols using the indicated TaqMan probes.
(§2) The protocol for the maturation experiments was as follows. The day before the experiment, the cells were fed in the flask by doubling the media. The cells were then harvested by adding non-enzymatic cell dissociation media and incubating at 37° C. for 15 minutes. The cells were transferred to a 50 ml tube and pipet to create a single-cell suspension. The cells were washed with PBS buffer. The cells were then resuspended in complete media at 5×10^5 cells per ml. Next, 2 ml of cells were transferred to 24- or 12-well plates. The treatment compounds were then dispensed into each well using the D300 liquid handler. The cells were then incubated for the indicated time at 37° C. The cells were harvested by scraping the cells and transferring to a 2 ml tube. The cells were spun to form a pellet. Next, RNA was extracted using the Qiagen RNeasy Mini kit according to manufacture protocols. The RNA concentration was recorded. The relative RNA levels were assessed using the Applied Biosystems TaqMan RNA-to-Ct kit according to manufacture protocols using the indicated Taqman probes.

fetal globin (HbG) = test: Fetal globin (HbG) induction in cultured CD34+ bone marrow cells; format: cell-based, human; details: 1 μM, treatment for 4 days
[2] = system: SH-SY5Y neuroblastoma cells; test: Neuroblastoma maturation gene expression, SH-SY5Y; format: cell-based; details: 2 days, 3 μM
Experimental: as §1
as §2, with “The treatment compounds were then dispensed into each well using the D300 liquid handler. The cells were then incubated for the indicated time at 37° C. The cells were harvested by scraping the cells and transferring to a 2 ml tube. The cells were spun to form a pellet. Next, RNA was extracted using the Qiagen RNeasy Mini kit according to manufacture protocols.” left out

HDAC2 [3] = target: T1, HDAC2 (Homo sapiens (Human), UniProt Q92769); test: HDAC2glo assay; format: cell-based
T1 sequence (Q92769 whole entry): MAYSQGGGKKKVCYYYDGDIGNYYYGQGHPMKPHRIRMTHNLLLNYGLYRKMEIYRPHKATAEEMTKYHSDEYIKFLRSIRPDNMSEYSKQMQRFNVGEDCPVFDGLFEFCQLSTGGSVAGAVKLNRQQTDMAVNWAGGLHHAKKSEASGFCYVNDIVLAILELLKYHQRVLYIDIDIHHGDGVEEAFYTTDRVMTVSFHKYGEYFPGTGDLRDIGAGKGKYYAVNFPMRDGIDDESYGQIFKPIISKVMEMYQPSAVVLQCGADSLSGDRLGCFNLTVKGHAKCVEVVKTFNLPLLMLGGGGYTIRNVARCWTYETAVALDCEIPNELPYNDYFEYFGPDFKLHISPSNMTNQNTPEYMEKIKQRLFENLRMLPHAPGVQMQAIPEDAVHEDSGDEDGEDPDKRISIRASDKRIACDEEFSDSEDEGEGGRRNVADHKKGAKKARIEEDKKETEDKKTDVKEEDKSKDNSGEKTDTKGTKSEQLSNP

[4] = system: human CD34+ bone marrow cells; test: Cellular viability of cultured CD34+ bone marrow cells; details: 1 μM, treatment for 4 days
HDAC2 [5] = target: T1, HDAC2; test: HDAC enzyme assay, HDAC2; format: biochemical
[6] = system: SH-SY5Y neuroblastoma cells; test: Neuroblastoma cell cycle by flow cytometry, SH-SY5Y; format: cell-based; details: 72 hours, 0.5, 2 and 5 μM (ATRA 1 μM)
Experimental: The following is a quick summary of the neuroblastoma cell cycle experiments. Adherent cells were plated into 12-well plates at 10^6 cells/well and allowed to adhere for 2-4 hours. Compounds were dispensed in DMSO at the indicated concentrations using an automated liquid handling system (Tecan D300) and incubated for the indicated times at 37° C. with 5% CO2. Cells were harvested with enzyme-free cell disassociation solution and washed with buffered saline. Cells were fixed overnight with 100% ethanol. Cell cycle was assessed by flow cytometry using the Molecular Probes FxCycle PI/RNase Staining Solution kit according to manufacture protocols.
The protocol for the cell cycle experiments was as follows. The day before the experiment, the cells were fed in the flask by doubling the media. Then, the cells were harvested by adding non-enzymatic cell dissociation media and incubating at 37° C. for 15 minutes. Next, the cells were transferred to a 50 ml tube and pipet to create a single-cell suspension. The cells were then washed with PBS buffer. Then, the cells were resuspended in complete media at 5×10^5 cells per ml. Next, 2 ml of cells were transferred to 12-well plates. Then, the treatment compounds were dispensed into each well using the D300 liquid handler. The cells were incubated for the indicated time at 37° C. Then, the cells were harvested by adding 500 μl enzyme free cell dissociation solution and incubating at 37° C. for 15 minutes. Next, the cells were spun into a pellet and then washed with PBS. Then, 500 μl 100% EtOH was added and incubated at 4° C. overnight. Then, the cells were washed 3× with PBS. The cells were then resuspended in […] FxCycle PI/RNase solution, and incubated for 2-4 hours at room temperature. Finally, the cells were assayed by flow cytometry.
SH-SY5Y neuroblastoma cells were treated with varying concentrations of either Compound X or Y, and/or ATRA (all trans retinoic acid). […] In addition, the fold change of p21 was also calculated. […] The HDACi/ATRA combination effects were modest, with little difference compared to single agents.

- concentration at which maximal HDAC2 inhibition was reached (HDAC2 [3]): 3 to 4 µM
- pIC50 (HDAC2 [5]): 7.47
Compound: O=C(NO)c1cnc(NC2(c3ccccc3)CCN(C(=O)Nc3ccccc3)CC2)nc1 [Compound 001, N-hydroxy-2-((4-phenyl-1-(phenylcarbamoyl)piperidin-4-yl)amino)pyrimidine-5-carboxamide]
- doses resulting in a net decrease in the viability of H929 cells (H929 human myeloma cells): over 3 uM
- fold change of genes associated with maturation ([1]; 2 days, 3 μM): induces gene expression changes that are consistent with maturation
- fold change of genes associated with maturation ([1]; 48 hours, 0.5, 2 and 4 μM): induces gene expression changes consistent with maturation at 4 μM, but not at 2 μM or less
- increase in the percentage of HbG relative to other beta-like globin transcripts (fetal globin (HbG)): 2 fold
- fold change of genes associated with maturation [2]: induces gene expression changes that are consistent with maturation
- decrease in cells viability [4]: 1.2 fold
- percent of the cell population in G2, S, G1 and Sub G1 phase [6]: induced a reduction in G1/G2 and increase in sub-G1
